# Reference: PubChem BioAssay AID2060338 (Molecular Pharmacology Branch, DTP, NCI, 2025)
# “And” between values parts separate entries of the source, which are not always exact repeats. Equal values may be shown once.
# System: 556581-035-R-J1-PDC spheroids with HUVEC/MSC, viability
# Test: Anticancer human tumor 556581-035-R-J1-PDC patient-derived ovarian carcinoma cell line growth inhibition [IpAb]
# Details: for viability, T/C: stronger effect = lower value
# Method in brief: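 Multi-cell spheroids of 60% tumour cells, 25% HUVEC and 15% MSC in ultra-low-attachment U-bottom wells, treated with agents combined with ipatasertib or abemaciclib. Half-log ranges top out near clinical Cmax, or 10 microM when Cmax is unknown.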
# [1] = curve of first compound, second compound 0.01 µM
# [2] = curve of first compound, second compound 0.0316 µM
# [3] = curve of first compound, second compound 0.1 µM
# [4] = curve of first compound, second compound 0.316 µM
# [5] = curve of first compound, second compound 1 µM
# [6] = second compound 0.1 µM, first compound 0.00949 µM
# [7] = second compound 0.1 µM, first compound 0.03 µM
# [8] = second compound 0.1 µM, first compound 0.0949 µM
# [9] = second compound 0.1 µM, first compound 0.3 µM
# [10] = second compound 0.316 µM, first compound 0.00949 µM
# [11] = second compound 0.316 µM, first compound 0.03 µM
# [12] = second compound 0.316 µM, first compound 0.0949 µM
# [13] = second compound 0.316 µM, first compound 0.3 µM
# [14] = second compound 1 µM, first compound 0.00949 µM
# [15] = second compound 1 µM, first compound 0.03 µM
# [16] = second compound 1 µM, first compound 0.0949 µM
# [17] = second compound 1 µM, first compound 0.3 µM
# 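Also: spheroids exposed to compounds for 7 days before readout.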
compound,measurement,setting,value
CC(=O)c1c(C)c2cnc(Nc3ccc(N4CCNCC4)cn3)nc2n(C2CCCC2)c1=O + CCN1CCN(Cc2ccc(Nc3ncc(F)c(-c4cc(F)c5nc(C)n(C(C)C)c5c4)n3)nc2)CC1,IC50,[1],> 300 nM
same,IC50,[2],> 300 nM
same,IC50,[3],> 300 nM
same,IC50,[4],> 300 nM
same,IC50,[5],> 300 nM
same,"viability, T/C","second compound 0.01 µM, first compound 0.000949 µM",99.9%
same,"viability, T/C","second compound 0.01 µM, first compound 0.003 µM",106%
same,"viability, T/C","second compound 0.01 µM, first compound 0.00949 µM",117%
same,"viability, T/C","second compound 0.01 µM, first compound 0.03 µM",100%
same,"viability, T/C","second compound 0.01 µM, first compound 0.0949 µM",82.7%
same,"viability, T/C","second compound 0.01 µM, first compound 0.3 µM",88.3%
same,"viability, T/C","second compound 0.0316 µM, first compound 0.000949 µM",76.2%
same,"viability, T/C","second compound 0.0316 µM, first compound 0.003 µM",93.2%
same,"viability, T/C","second compound 0.0316 µM, first compound 0.00949 µM",101%
same,"viability, T/C","second compound 0.0316 µM, first compound 0.03 µM",91.3%
same,"viability, T/C","second compound 0.0316 µM, first compound 0.0949 µM",92.2%
same,"viability, T/C","second compound 0.0316 µM, first compound 0.3 µM",76.1%
same,"viability, T/C","second compound 0.1 µM, first compound 0.000949 µM",81.7%
same,"viability, T/C","second compound 0.1 µM, first compound 0.003 µM",84.4%
same,"viability, T/C",[6],82%
same,"viability, T/C",[7],87.3%
same,"viability, T/C",[8],80.2%
same,"viability, T/C",[9],89.1%
same,"viability, T/C","second compound 0.316 µM, first compound 0.000949 µM",89.5%
same,"viability, T/C","second compound 0.316 µM, first compound 0.003 µM",84.4%
same,"viability, T/C",[10],94.6%
same,"viability, T/C",[11],68.8%
same,"viability, T/C",[12],81.3%
same,"viability, T/C",[13],64%
same,"viability, T/C","second compound 1 µM, first compound 0.000949 µM",49.9%
same,"viability, T/C","second compound 1 µM, first compound 0.003 µM",57.8%
same,"viability, T/C",[14],46.6%
same,"viability, T/C",[15],55%
same,"viability, T/C",[16],49.8%
same,"viability, T/C",[17],54%
COc1c(OCCCN2CCOCC2)ccc2c3n(c(=NC(=O)c4cnc(N)nc4)nc12)CCN3 + CCN1CCN(Cc2ccc(Nc3ncc(F)c(-c4cc(F)c5nc(C)n(C(C)C)c5c4)n3)nc2)CC1,IC50,[1],14.7 nM
same,IC50,[2],18.8 nM
same,IC50,[3],21.9 nM
same,IC50,[4],21.2 nM
same,IC50,[5],12.4 nM
same,"viability, T/C","second compound 0.01 µM, first compound 0.00316 µM",76.3%
same,"viability, T/C","second compound 0.01 µM, first compound 0.01 µM",49.2%
same,"viability, T/C","second compound 0.01 µM, first compound 0.0316 µM",39.6%
same,"viability, T/C","second compound 0.01 µM, first compound 0.1 µM",29.9%
same,"viability, T/C","second compound 0.01 µM, first compound 0.316 µM",12.4%
same,"viability, T/C","second compound 0.01 µM, first compound 1 µM",3.84%
same,"viability, T/C","second compound 0.0316 µM, first compound 0.00316 µM",77.2%
same,"viability, T/C","second compound 0.0316 µM, first compound 0.01 µM",53.8%
same,"viability, T/C","second compound 0.0316 µM, first compound 0.0316 µM",43.9%
same,"viability, T/C","second compound 0.0316 µM, first compound 0.1 µM",32.4%
same,"viability, T/C","second compound 0.0316 µM, first compound 0.316 µM",11.2%
same,"viability, T/C","second compound 0.0316 µM, first compound 1 µM",2.33%
same,"viability, T/C","second compound 0.1 µM, first compound 0.00316 µM",84%
same,"viability, T/C","second compound 0.1 µM, first compound 0.01 µM",60.9%
same,"viability, T/C","second compound 0.1 µM, first compound 0.0316 µM",40.3%
same,"viability, T/C","second compound 0.1 µM, first compound 0.1 µM",34.4%
same,"viability, T/C","second compound 0.1 µM, first compound 0.316 µM",11.3%
same,"viability, T/C","second compound 0.1 µM, first compound 1 µM",2%
same,"viability, T/C","second compound 0.316 µM, first compound 0.00316 µM",84.9%
same,"viability, T/C","second compound 0.316 µM, first compound 0.01 µM",63.2%
same,"viability, T/C","second compound 0.316 µM, first compound 0.0316 µM",41.2%
same,"viability, T/C","second compound 0.316 µM, first compound 0.1 µM",29.9%
same,"viability, T/C","second compound 0.316 µM, first compound 0.316 µM",7.71%
same,"viability, T/C","second compound 0.316 µM, first compound 1 µM",3.06%
same,"viability, T/C","second compound 1 µM, first compound 0.00316 µM",59.9%
same,"viability, T/C","second compound 1 µM, first compound 0.01 µM",51.7%
same,"viability, T/C","second compound 1 µM, first compound 0.0316 µM",40.4%
same,"viability, T/C","second compound 1 µM, first compound 0.1 µM",29.8%
same,"viability, T/C","second compound 1 µM, first compound 0.316 µM",12%
same,"viability, T/C","second compound 1 µM, first compound 1 µM",2.02%
CC(C)(C)c1cnc(CSc2cnc(NC(=O)C3CCNCC3)s2)o1 + CC(C)NCC(C(=O)N1CCN(c2ncnc3c2C(C)CC3O)CC1)c1ccc(Cl)cc1,IC50,[3],107 nM
same,IC50,[4],137 nM
same,IC50,[5],55.2 nM
same,IC50,"curve of first compound, second compound 3.16 µM",42.9 nM
same,IC50,"curve of first compound, second compound 10 µM",< 9.49 nM
same,"viability, T/C",[6],86.1%
same,"viability, T/C",[7],116%
same,"viability, T/C",[8],55.3%
same,"viability, T/C",[9],3.48%
same,"viability, T/C","second compound 0.1 µM, first compound 0.949 µM",3.84%
same,"viability, T/C","second compound 0.1 µM, first compound 3 µM",2.08%
same,"viability, T/C",[10],81.1%
same,"viability, T/C",[11],89.9%
same,"viability, T/C",[12],71.9%
same,"viability, T/C",[13],3.02%
same,"viability, T/C","second compound 0.316 µM, first compound 0.949 µM",2.73%
same,"viability, T/C","second compound 0.316 µM, first compound 3 µM",3.48%
same,"viability, T/C",[14],64.6%
same,"viability, T/C",[15],65.4%
same,"viability, T/C",[16],36.7%
same,"viability, T/C",[17],2.25%
same,"viability, T/C","second compound 1 µM, first compound 0.949 µM",2.57%
same,"viability, T/C","second compound 1 µM, first compound 3 µM",3.16%
same,"viability, T/C","second compound 3.16 µM, first compound 0.00949 µM",56.4%
same,"viability, T/C","second compound 3.16 µM, first compound 0.03 µM",55.7%
same,"viability, T/C","second compound 3.16 µM, first compound 0.0949 µM",36.6%
same,"viability, T/C","second compound 3.16 µM, first compound 0.3 µM",2.16%
same,"viability, T/C","second compound 3.16 µM, first compound 0.949 µM",3.96%
same,"viability, T/C","second compound 3.16 µM, first compound 3 µM",2.31%
same,"viability, T/C","second compound 10 µM, first compound 0.00949 µM",46.1%
same,"viability, T/C","second compound 10 µM, first compound 0.03 µM",44.2%
same,"viability, T/C","second compound 10 µM, first compound 0.0949 µM",11.5%
same,"viability, T/C","second compound 10 µM, first compound 0.3 µM",2.21%
same,"viability, T/C","second compound 10 µM, first compound 0.949 µM",1.45%
same,"viability, T/C","second compound 10 µM, first compound 3 µM",1.36%
Cc1nc(NC(=O)N2CCCC2C(N)=O)sc1-c1ccnc(C(C)(C)C(F)(F)F)c1 (centres undefined),"viability, T/C",compound 0.0316 µM,84.4% and 80.2%
same,"viability, T/C",compound 0.1 µM,73.3% and 72.6%
same,"viability, T/C",compound 0.316 µM,58.8% and 56.2%
same,"viability, T/C",compound 1 µM,40.9% and 42%
same,"viability, T/C",compound 3.16 µM,28.5% and 31.8%
same,"viability, T/C",compound 10 µM,9.2% and 11.3%
same,IC50,curve of compound,594 nM and 608 nM
CC(C)n1nc(-c2ccc3oc(N)nc3c2)c2c(N)ncnc21,"viability, T/C",compound 0.000316 µM,99.2% and 88.1%
same,"viability, T/C",compound 0.001 µM,62.2% and 89.2%
same,"viability, T/C",compound 0.00316 µM,70.7% and 66.5%
same,"viability, T/C",compound 0.01 µM,45.7% and 44.2%
same,"viability, T/C",compound 0.0316 µM,34.7% and 34%
same,"viability, T/C",compound 0.1 µM,25.1% and 23.4%
same,IC50,curve of compound,7.84 nM and 7.75 nM
